Type in all cases: functional
The subject of one assay is Hs-578T. The experiment in a line: Antitumor activity against human Hs-578T cells incubated for 48 hrs.
For another assay, the system named is A549. Briefly: Antitumor activity against human A549 cells incubated for 48 hrs.
In the next assay the test system is HCT-116. The experiment in a line: Antitumor activity against human HCT-116 cells incubated for 48 hrs.
For assay [1], the system named is MDA-MB-231. Briefly: Antitumor activity against human MDA-MB-231 cells incubated for 48 hrs in presence of 1.5% BSA by Celltiter Blue reagent based 2D microtiter assay. (Resazurin is reduced to fluorescent resorufin, in cell work by metabolically active cells.)
Assay [2] has as its system MDA-MB-231. Briefly: Antitumor activity against human MDA-MB-231 cells incubated for 48 hrs by Celltiter Blue reagent based 2D microtiter assay.
Assay [3] concerns MDA-MB-231. The experiment in a line: Antitumor activity against human MDA-MB-231 cells incubated for 48 hrs in presence of 1.5% BSA by Celltiter Blue reagent based 3D microtiter assay.
The test system of assay [4] is MDA-MB-231. Briefly: Antitumor activity against human MDA-MB-231 cells incubated for 48 hrs by Celltiter Blue reagent based 3D microtiter assay.

Take `[2H]C([2H])([2H])C([2H])([2H])N(C(=O)C[C@H]1C(=O)Nc2cc(NC(=O)c3cc(OC)c(OC)c(OC)c3Br)c(Oc3cc(C)cc(C)c3)cc2C(=O)N1C)C([2H])([2H])C([2H])([2H])[2H]`: the GI50 (in general, the concentration at which growth is held to half of that of the control) in the assay on Hs-578T was < 5 nM; in the assay with A549, < 5 nM; with HCT-116, 15.6 nM.
Regarding `[2H]C([2H])([2H])Oc1cc(C(=O)Nc2cc3c(cc2Oc2cc(C)cc(C)c2)C(=O)N[C@@H](CC(=O)N(C([2H])([2H])C([2H])([2H])[2H])C([2H])([2H])C([2H])([2H])[2H])C(=O)N3)c(Cl)c(OC([2H])([2H])[2H])c1OC([2H])([2H])[2H]`, the GI50 in the assay on Hs-578T is 51.5 nM; in the assay on A549, 11.7 nM; in the assay on HCT-116 it was < 5 nM.
As to `[2H]C([2H])([2H])Oc1c(OC)cc(C(=O)Nc2cc3c(cc2Oc2cc(C)cc(C)c2)C(=O)N[C@@H](CC(=O)N(CC)CC)C(=O)N3)c(Cl)c1OC`, the GI50 in the assay on Hs-578T is 31.9 nM; in the assay with A549, 13.1 nM; in the assay on HCT-116, < 5 nM.
For `[2H]C([2H])([2H])c1cc(Oc2cc3c(cc2NC(=O)c2cc(OC)c(OC)c(OC)c2Cl)NC(=O)[C@H](CC(=O)N(CC)CC)NC3=O)cc(C([2H])([2H])[2H])c1`, in that order: 30.1 nM, 11.6 nM and < 5 nM.
For `[2H]C([2H])([2H])Oc1cc(C(=O)Nc2cc3c(cc2Oc2cc(C)cc(C)c2)C(=O)N(C)[C@@H](CC(=O)N(C([2H])([2H])[2H])C([2H])([2H])[2H])C(=O)N3)c(Br)c(OC([2H])([2H])[2H])c1OC([2H])([2H])[2H]`, in that order: < 5 nM, < 5 nM and < 5 nM.
For `[2H]C([2H])([2H])Oc1cc(C(=O)Nc2cc3c(cc2Oc2cc(C)cc(C)c2)C(=O)N[C@@H](CC(=O)N(C([2H])([2H])C([2H])([2H])[2H])C([2H])([2H])C([2H])([2H])[2H])C(=O)N3)c(Br)c(OC([2H])([2H])[2H])c1OC([2H])([2H])[2H]`, the GI50 with MDA-MB-231 [1] was < 1 nM; in the assay on MDA-MB-231 [2] it was < 1 nM; in the assay with MDA-MB-231 [3] it was 14 nM; in the assay on MDA-MB-231 [4], 64.1 nM; with Hs-578T, < 5 nM; in the assay with A549, < 5 nM. In addition, the GI50 in the assay on HCT-116 was < 5 nM.
As for `[2H]C([2H])([2H])N1C(=O)c2cc(Oc3cc(C)cc(C)c3)c(NC(=O)c3cc(OC)c(OC)c(OC)c3Br)cc2NC(=O)[C@@H]1CC(=O)N(CC)CC`, the GI50 with Hs-578T is 20.9 nM; in the assay with A549, < 5 nM; in the assay on HCT-116, < 5 nM.
With `[2H]C([2H])([2H])Oc1cc(C(=O)Nc2cc3c(cc2Oc2cc(C)cc(C)c2)C(=O)N[C@@H](CC(=O)N(C)C)C(=O)N3)c(Br)c(OC([2H])([2H])[2H])c1OC([2H])([2H])[2H]`, the GI50 in the assay on MDA-MB-231 [1] is 0.79 nM; in the assay with MDA-MB-231 [2], 0.23 nM; in the assay on MDA-MB-231 [3], 0.75 nM; in the assay with MDA-MB-231 [4] it was 25.3 nM; with Hs-578T, < 5 nM; in the assay with A549, < 5 nM. Moreover, in the assay on HCT-116, the GI50 is < 5 nM.
With `COc1cc(C(=O)Nc2cc3c(cc2Oc2cc(C)cc(C)c2)C(=O)N(C)[C@@H](CC(=O)N(C)C)C(=O)N3)c(Br)c(OC)c1OC`, the GI50 in the assay with Hs-578T, in the assay with A549 and with HCT-116 was < 5 nM each time.
Take `[2H]C([2H])([2H])Oc1cc(C(=O)Nc2cc3c(cc2Oc2cc(C)cc(C)c2)C(=O)N(C)[C@@H](CC(=O)N(C([2H])([2H])C([2H])([2H])[2H])C([2H])([2H])C([2H])([2H])[2H])C(=O)N3)c(Br)c(OC([2H])([2H])[2H])c1OC([2H])([2H])[2H]`: the GI50 with Hs-578T, in the assay on A549 and with HCT-116 was < 5 nM in each case.
Consider `[2H]C([2H])([2H])C([2H])([2H])N(C(=O)C[C@@H]1NC(=O)c2cc(Oc3cc(C)cc(C)c3)c(NC(=O)c3cc(OC)c(OC)c(OC)c3Br)cc2NC1=O)C([2H])([2H])C([2H])([2H])[2H]`, for which the values for the 50% growth inhibitory concentration (GI50) with Hs-578T, in the assay with A549 and in the assay on HCT-116 were 16.1 nM, < 5 nM and < 5 nM, respectively.
In the case of `[2H]c1c(Oc2cc3c(cc2NC(=O)c2cc(OC)c(OC)c(OC)c2Cl)NC(=O)[C@H](CC(=O)N(CC)CC)NC3=O)c([2H])c(C([2H])([2H])[2H])c([2H])c1C([2H])([2H])[2H]`, the GI50 in the assay on Hs-578T is 27.7 nM; in the assay with A549, 19.1 nM; with HCT-116 it was < 5 nM.
For `[2H]C([2H])([2H])Oc1cc(C(=O)Nc2cc3c(cc2Oc2cc(C)cc(C)c2)C(=O)N[C@@H](CC(=O)N(C)O)C(=O)N3)c(Br)c(OC([2H])([2H])[2H])c1OC([2H])([2H])[2H]`, in that order: 8.6 nM, < 5 nM and 15.6 nM.
For `[2H]C([2H])([2H])Oc1cc(C(=O)Nc2cc3c(cc2Oc2cc(C)cc(C)c2)C(=O)N(C)[C@@H](CC(=O)N(C)C)C(=O)N3)c(Br)c(OC([2H])([2H])[2H])c1OC([2H])([2H])[2H]`, in that order: < 5 nM, < 5 nM and < 5 nM.
For `[2H]C([2H])([2H])N(C(=O)C[C@H]1C(=O)Nc2cc(NC(=O)c3cc(OC)c(OC)c(OC)c3Br)c(Oc3cc(C)cc(C)c3)cc2C(=O)N1C)C([2H])([2H])[2H]`, in that order: < 5 nM, < 5 nM and < 5 nM.
As to `[2H]C([2H])([2H])Oc1cc(C(=O)Nc2cc3c(cc2Oc2cc(C)cc(C)c2)C(=O)N[C@@H](CC(=O)N(CC)CC)C(=O)N3)c(Br)c(OC([2H])([2H])[2H])c1OC([2H])([2H])[2H]`, the GI50 is 8.1 nM with Hs-578T, < 5 nM with A549 and < 5 nM in the assay with HCT-116.
For the compound `COc1cc(C(=O)Nc2cc3c(cc2Oc2cc(C)cc(C)c2)C(=O)N[C@@H](CC(=O)N(C)C)C(=O)N3)c(Br)c(OC)c1OC`, the 50% growth inhibitory concentration (GI50) with Hs-578T, in the assay with A549 and with HCT-116 was < 5 nM each time.
As to `[2H]C([2H])([2H])Oc1cc(C(=O)Nc2cc3c(cc2Oc2cc(C)cc(C)c2)C(=O)N[C@@H](CC(=O)N(CC)CC)C(=O)N3)c(Cl)c(OC([2H])([2H])[2H])c1OC([2H])([2H])[2H]`, the figures for the GI50 in the assay on Hs-578T, with A549 and with HCT-116 were 39.7 nM, 14.9 nM and 5.4 nM, respectively.
For `[2H]c1c(C)c([2H])c(Oc2cc3c(cc2NC(=O)c2cc(OC)c(OC)c(OC)c2Cl)NC(=O)[C@H](CC(=O)N(CC)CC)NC3=O)c([2H])c1C`, in that order: 292 nM, 207 nM and 124 nM.
For `[2H]C([2H])([2H])Oc1cc(C(=O)Nc2cc3c(cc2Oc2cc(C)cc(C)c2)C(=O)N[C@@H](CC(=O)N(C([2H])([2H])[2H])C([2H])([2H])[2H])C(=O)N3)c(Br)c(OC([2H])([2H])[2H])c1OC([2H])([2H])[2H]`, in that order: < 5 nM, 6.1 nM and < 5 nM.
In the case of `[2H]C([2H])([2H])Oc1cc(C(=O)Nc2cc3c(cc2Oc2cc(C)cc(C)c2)C(=O)N[C@@H](CC(=O)N(C)OC)C(=O)N3)c(Br)c(OC([2H])([2H])[2H])c1OC([2H])([2H])[2H]`, the GI50 was < 1 nM with MDA-MB-231 [1]; < 1 nM with MDA-MB-231 [2]; 90.3 nM in the assay with MDA-MB-231 [3]; 251 nM in the assay on MDA-MB-231 [4]; < 5 nM in the assay on Hs-578T; 4.9 nM in the assay with A549. For the same compound, the GI50 in the assay with HCT-116 is 7.8 nM.
On to `[2H]C([2H])([2H])N(C(=O)C[C@@H]1NC(=O)c2cc(Oc3cc(C)cc(C)c3)c(NC(=O)c3cc(OC)c(OC)c(OC)c3Br)cc2NC1=O)C([2H])([2H])[2H]`, for which the GI50 in the assay with MDA-MB-231 [1] was 9.43 nM; in the assay with MDA-MB-231 [2], 9.33 nM; in the assay with MDA-MB-231 [3], 22.5 nM; in the assay on MDA-MB-231 [4], 9.96 nM; with Hs-578T, < 5 nM; in the assay with A549, < 5 nM. The compound also displayed a GI50 in the assay with HCT-116 of 7.1 nM.

These data come from ChEMBL document CHEMBL5550190 (J Med Chem, 2024).
